Reference: ChEMBL document CHEMBL4613210, “Tacrines for Alzheimer's disease therapy. III. The PyridoTacrines” (Eur J Med Chem, 2019)

Tests used:
[1] = target: Acetylcholinesterase (Electrophorus electricus, UniProt O42275)
Description: Inhibition of electric eel AChE

[2] = target: Voltage-gated calcium channel
Description: Inhibition of VGCC (unknown origin)

[3] = target: T1, Acetylcholinesterase (Bos taurus, UniProt P23795); assay: Inhibition of bovine erythrocytes AChE using acetylthiocholine iodide as substrate by Ellman's methods
T1 sequence (P23795 whole entry): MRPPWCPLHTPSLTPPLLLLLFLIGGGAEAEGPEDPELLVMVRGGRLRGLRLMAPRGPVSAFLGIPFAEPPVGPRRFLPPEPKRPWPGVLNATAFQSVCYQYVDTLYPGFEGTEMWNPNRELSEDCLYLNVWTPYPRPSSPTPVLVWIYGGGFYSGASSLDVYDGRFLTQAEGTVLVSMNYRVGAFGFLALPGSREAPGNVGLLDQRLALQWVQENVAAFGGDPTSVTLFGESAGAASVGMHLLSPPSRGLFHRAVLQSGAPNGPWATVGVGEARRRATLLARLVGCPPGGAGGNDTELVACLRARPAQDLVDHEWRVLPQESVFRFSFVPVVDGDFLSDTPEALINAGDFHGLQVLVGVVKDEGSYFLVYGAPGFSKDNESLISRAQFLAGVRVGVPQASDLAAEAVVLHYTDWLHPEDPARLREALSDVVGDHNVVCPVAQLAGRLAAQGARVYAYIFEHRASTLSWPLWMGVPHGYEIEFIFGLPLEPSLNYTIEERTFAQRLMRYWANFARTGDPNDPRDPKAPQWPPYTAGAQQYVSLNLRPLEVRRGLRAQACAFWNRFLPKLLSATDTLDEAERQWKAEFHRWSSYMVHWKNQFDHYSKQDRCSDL

[4] = target: T2, Cholinesterase (Homo sapiens, UniProt P06276)
Description: Inhibition of BuChE (unknown origin)

[5] = target: Acetylcholinesterase (Homo sapiens, UniProt P22303); assay: Inhibition of human AChE
[6] = target: T2, Cholinesterase; remark: listed apart in the source
Description: Inhibition of human serum BuChE using butyrylthiocholine iodide as substrate by Ellman's methods

[7] = target: T2, Cholinesterase; assay: Inhibition of human BuChE

Sequence of Acetylcholinesterase (Electrophorus electricus, UniProt O42275) (O42275 whole entry): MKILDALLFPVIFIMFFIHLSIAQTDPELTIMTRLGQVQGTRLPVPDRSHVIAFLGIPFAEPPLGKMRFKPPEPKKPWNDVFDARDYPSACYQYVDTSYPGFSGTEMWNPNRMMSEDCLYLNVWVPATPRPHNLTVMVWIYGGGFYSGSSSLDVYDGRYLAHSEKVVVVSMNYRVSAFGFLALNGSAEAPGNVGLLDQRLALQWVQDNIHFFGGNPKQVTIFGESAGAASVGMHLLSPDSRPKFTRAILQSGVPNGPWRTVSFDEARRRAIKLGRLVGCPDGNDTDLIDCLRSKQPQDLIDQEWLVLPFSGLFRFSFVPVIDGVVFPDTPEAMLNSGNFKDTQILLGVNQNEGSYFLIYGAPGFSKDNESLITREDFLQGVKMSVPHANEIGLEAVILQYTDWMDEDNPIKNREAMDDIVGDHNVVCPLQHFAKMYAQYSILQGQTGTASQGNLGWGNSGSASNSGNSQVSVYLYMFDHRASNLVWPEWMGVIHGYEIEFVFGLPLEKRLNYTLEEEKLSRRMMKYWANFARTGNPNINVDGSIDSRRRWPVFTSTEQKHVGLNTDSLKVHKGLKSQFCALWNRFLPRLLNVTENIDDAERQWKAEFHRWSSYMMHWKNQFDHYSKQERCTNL
T2 sequence (P06276 whole entry): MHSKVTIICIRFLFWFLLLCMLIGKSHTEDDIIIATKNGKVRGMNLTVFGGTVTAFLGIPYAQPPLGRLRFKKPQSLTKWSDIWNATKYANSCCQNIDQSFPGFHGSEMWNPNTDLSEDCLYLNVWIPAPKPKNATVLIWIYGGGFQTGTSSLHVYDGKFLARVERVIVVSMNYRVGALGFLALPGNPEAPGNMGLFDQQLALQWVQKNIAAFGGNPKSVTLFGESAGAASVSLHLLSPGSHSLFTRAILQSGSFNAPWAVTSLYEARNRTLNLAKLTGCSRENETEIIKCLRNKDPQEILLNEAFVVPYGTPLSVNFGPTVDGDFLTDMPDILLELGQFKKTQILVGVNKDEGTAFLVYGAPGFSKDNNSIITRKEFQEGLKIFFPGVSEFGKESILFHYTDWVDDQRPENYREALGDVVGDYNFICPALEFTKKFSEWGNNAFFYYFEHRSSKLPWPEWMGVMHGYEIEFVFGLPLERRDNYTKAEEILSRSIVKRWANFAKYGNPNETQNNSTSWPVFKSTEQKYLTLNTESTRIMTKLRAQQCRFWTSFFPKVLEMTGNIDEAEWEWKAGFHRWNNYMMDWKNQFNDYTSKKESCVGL
Sequence of Acetylcholinesterase (Homo sapiens, UniProt P22303) (P22303 whole entry): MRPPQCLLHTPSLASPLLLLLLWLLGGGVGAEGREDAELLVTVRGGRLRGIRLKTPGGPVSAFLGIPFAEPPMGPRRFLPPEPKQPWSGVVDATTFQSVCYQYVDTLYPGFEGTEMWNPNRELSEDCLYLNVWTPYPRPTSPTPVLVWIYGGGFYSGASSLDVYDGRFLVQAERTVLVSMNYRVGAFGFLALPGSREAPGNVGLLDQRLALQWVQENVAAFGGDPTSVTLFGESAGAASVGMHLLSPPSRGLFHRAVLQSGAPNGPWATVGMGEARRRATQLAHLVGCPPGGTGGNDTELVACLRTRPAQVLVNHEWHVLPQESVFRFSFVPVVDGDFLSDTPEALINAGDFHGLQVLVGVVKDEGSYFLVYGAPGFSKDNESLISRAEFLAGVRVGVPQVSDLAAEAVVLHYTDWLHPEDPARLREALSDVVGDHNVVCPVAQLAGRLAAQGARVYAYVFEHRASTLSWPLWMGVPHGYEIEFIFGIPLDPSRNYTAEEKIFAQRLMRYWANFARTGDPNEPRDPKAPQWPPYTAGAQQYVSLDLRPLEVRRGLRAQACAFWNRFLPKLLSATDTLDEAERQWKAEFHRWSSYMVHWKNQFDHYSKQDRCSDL

Q: Which results are given for CCOC(=O)c1c(C)nc2nc3c(c(N)c2c1-c1ccccc1)CCCCCC3?
A: IC50 [1]: 17 µM; IC50 [2]: 10 µM

Q: Which IC50 ([3]; read-out: IC50) does the source give for COc1cc(C2c3ccc(O)cc3Oc3nc4c(c(N)c32)CCCC4)cc(OC)c1OC (racemic) here?
A: 0.041 µM

Q: With CCOC(=O)c1c(C)nc2nc3c(c(N)c2c1-c1ccccc1)CCCCC3 as the molecule, how does the IC50 [3] read?
A: 21 µM

Q: Which results are given for CCOC(=O)c1c(C)nc2nc3c(c(N)c2c1-c1cccc(OC)c1)CCCC3?
A: IC50 [4]: 31 µM; IC50 [1]: 1.2 µM; IC50 [2]: 15 µM

Q: What does the source list for CCOC(=O)c1c(C)nc2nc3c(c(N)c2c1-c1ccc(F)cc1)CCCC3?
A: IC50 [4]: 12 µM; IC50 [1]: 0.7 µM; IC50 [2]: 38 µM

Q: COc1ccc(C2c3c(nc4c(c3N)CCCC4)Oc3ccc4ccccc4c32)cc1OC (racemic) was tested. Which IC50 [5] did it give?
A: 0.083 µM

Q: What does the source list for CCOC(=O)c1c(C)nc2nc3c(c(N)c2c1-c1ccc(OC)c(OC)c1)CCCC3?
A: IC50 [1]: 1.3 µM; IC50 [2]: 26 µM

Q: Which IC50 ([3]; read-out: IC50) does the source give for CCOC(=O)c1c(C)nc2nc3c(c(N)c2c1-c1ccc(OC)cc1)CCC3 here?
A: 14 µM

Q: For CCOC(=O)c1c(C)nc2nc3c(c(N)c2c1-c1ccc([N+](=O)[O-])cc1)CCCCC3, which IC50 [1] is on record?
A: 14 µM

Q: And the IC50 [2]?
A: 13 µM

Q: For CCOC(=O)c1c(C)nc2nc3c(c(N)c2c1-c1ccc(OC)c(OC)c1)CCCCC3, which IC50 [1] is on record?
A: 6.4 µM

Q: And the IC50 [2]?
A: 9 µM

Q: With CCOC(=O)c1c(C)nc2nc3c(c(N)c2c1-c1ccc(Cl)cc1)CCCCC3 as the molecule, how does the IC50 [1] read?
A: 19 µM

Q: What about the IC50 [2] of the same molecule?
A: 27 µM

Q: With CCOC(=O)c1c(C)nc2nc3c(c(N)c2c1-c1cccc([N+](=O)[O-])c1)CCCC3 as the molecule, how does the IC50 [4] read?
A: 21 µM

Q: What about the IC50 [1] of the same molecule?
A: 0.9 µM

Q: And the IC50 [2]?
A: 18 µM

Q: Which results are given for CCOC(=O)c1c(C)nc2nc3c(c(N)c2c1-c1ccccc1)CCCC3?
A: IC50 [3]: 0.82 µM; IC50 [4]: 5 µM; IC50 [2]: 20 µM; IC50 [6]: 5 µM

Q: Which IC50 [1] does the source give for CCOC(=O)c1c(C)nc2nc3c(c(N)c2c1-c1ccc(F)cc1)CCCCC3 here?
A: 5.4 µM

Q: And the IC50 [2]?
A: 17 µM

Q: How did the IC50 ([3]; read-out: IC50) turn out when CCOC(=O)C1=C(C)Oc2nc3c(c(N)c2C1c1ccc(OC)cc1)CCCC3 (racemic) was run?
A: 0.87 µM

Q: And the IC50 [7]?
A: 6.2 µM

Q: What about the IC50 [6] of the same molecule?
A: 6.2 µM

Q: With CCOC(=O)c1c(C)nc2nc3c(c(N)c2c1-c1ccccc1)CCC3 as the molecule, how does the IC50 [3] read?
A: 11.9 µM

Q: With CCOC(=O)c1c(C)nc2nc3c(c(N)c2c1-c1ccc(Cl)cc1)CCCC3 as the molecule, how does the IC50 [4] read?
A: 52 µM

Q: What about the IC50 [1] of the same molecule?
A: 1.3 µM

Q: And the IC50 [2]?
A: 34 µM

Q: For CCOC(=O)c1c(C)nc2nc3c(c(N)c2c1-c1cccc(OC)c1)CCCCC3, which IC50 [2] is on record?
A: 9 µM

Q: Which IC50 [1] does the source give for CCOC(=O)c1c(C)nc2nc3c(c(N)c2c1-c1ccc(OC)cc1)CCCCCC3 here?
A: 17 µM

Q: What about the IC50 [2] of the same molecule?
A: 20 µM

Q: With Cc1nc2nc3c(c(N)c2c(-c2ccccc2)c1C(=O)OC(C)C)CCCC3 as the molecule, how does the IC50 [4] read?
A: 12 µM

Q: And the IC50 [1]?
A: 1.2 µM

Q: And the IC50 [2]?
A: 10 µM

Q: What does the source list for CCOC(=O)c1c(C)nc2nc3c(c(N)c2c1-c1ccc(C)cc1)CCCCC3?
A: IC50 [1]: 13 µM; IC50 [2]: 24 µM

Q: What does the source list for CCOC(=O)c1c(C)nc2nc3c(c(N)c2c1-c1ccccc1OC)CCCCC3?
A: IC50 [1]: 22 µM; IC50 [2]: 17 µM

Q: CCOC(=O)c1c(C)nc2nc3c(c(N)c2c1-c1ccc(OC)cc1)CCCC3 was tested. Which IC50 [3] did it give?
A: 9 µM

Q: Which IC50 ([3]; read-out: IC50) does the source give for CCOC(=O)c1c(C)nc2nc3c(c(N)c2c1-c1ccc(OC)cc1)CCCCC3 here?
A: 1.3 µM

Q: And the IC50 [6]?
A: 80.6 µM
